From US20140314787A1, “Treatment for neurodegenerative diseases” (NOVARTIS FORSCHUNGSSTIFTUNG, ZWEIGNIEDERLASSUNG, FRIEDRICH …, priority 2011, published 2014)

Key:
[1] = tested on: FSOD mice (mutant SOD1(G93A)); assay: climb test of motor performance in FSOD mice; type: in vivo; details: for motor performance: figure legend (FIG. 9, FIG. 10)
Method: Climb test: Neurodegenerative status of the mice was tested using a climb test device developed by some of the inventors. This device is based on a flappable wire meshwork platform (10×10 cm) suspended from one corner by a rigid boom. The platform is suspended about 40 cm above a surface. The platform is fully open and the test is performed in ambient light. During the test, mice are prevented of climbing the boom by a transparent plastic disk. For the performance of the test, mice were gently transferred to the platform and allowed to explore it for 2 minutes. […] As soon as the mice reached the upper surface of the grid (all four limbs on the same side), the grid was gently flipped over so that the mice were not be allowed to rest. The number of performed climbs in the test period was counted, the test period being 11 minutes (5 min and 30 min variants have been tested as well). The climb movement to be performed by the mice involves a forceful yet brief push with fore- and hind-limbs, thus mimicking short-lived but powerful movements that are known to recruit fast motoneurons.
At day P27, mice were treated either with Eer-I (1 μg/g in 150 mM NaCl, s.c., daily) or with saline. Mice were tested at P29 and at P32.
On day P47 treatment was stopped and the mice were tested 2 days later.
Treatment dose was 1 μg/g in 150 mM NaCl, s.c., daily. Mice were treated and tested at baseline (p32), and thereafter tested in the climb test at 38, 43, 56 days of age.

VCP [2] = target: T1, VCP (Homo sapiens, UniProt P55072); details: literature (Chou T F et al. 2011); cited from earlier work
[3] = tested on: Mutant SOD1(G93A) transgenic mice; assay: survival of mutant SOD1(G93A) transgenic mice; type: in vivo
Method: Survival was determined up to the day of death or euthanasia (according to the termination criteria of a righting time >30 sec).

[4] = tested on: FSOD mice (mutant SOD1(G93A)); assay: grid test of motor performance / muscle strength in FSOD mice; type: in vivo
Method: Motor performance was assessed by grid test, a standard task for the quantification of muscle strength and neurological impairment.

[5] = body weight recording in treated mice; type: in vivo
Method: Body weight was recorded at P45, P65, P85 and then at 5-7 days intervals. Five mice per group were followed, representative individuals are shown.

VCP [6] = assay: VCP immunostaining intensity in lumbar spinal cord motoneurons; type: in vivo, mice
Method: After washing in PBS, lumbar (L2-L5) spinal cord was cryoprotected overnight in 30% sucrose. Lumbar spinal cord was embedded in OCT and sectioned at 50 μm. Sections were blocked in PBS-3% BSA −0.3% Triton X 100, and incubated double-overnight at 4 C in the same buffer plus anti VCP monoclonal antibody (Affinity Bioreagents) diluted 1:10,000 and polyclonal anti VAChT (Sigma) 1:1000. Sections were then briefly washed with PBS and incubated for 120 min at RT with goat-anti-rabbit (Alexa 647, Invitrogen) or goat-anti-mouse (Alexa 488, Invitrogen). Confocal images were acquired using an Zeiss LSM700 microscope, fitted with a 20×air objective. Images were processed using Imaris software. For the analysis of VCP labeling intensities, data were acquired with identical confocal settings, ensuring that signals at the brightest cells were not saturated, and that background levels outside clusters were still detectable. Images were then analyzed quantitatively using Image-Pro 5 software (Media Cybernetics). Signal intensities were acquired within areas inside cells, excluding areas lacking signal; background levels outside cells were subtracted from these values.

VCP [7] = target: T1, VCP; details: literature (Wang Q et al. 2008, 2010); cited from earlier work
[8] = FSOD mice treated from P20, s.c. daily
[9] = FSOD mice treated from P63, s.c. daily
[10] = 1 μg/g s.c. daily from weaning (P20), vs untreated

T1 sequence (P55072 whole entry): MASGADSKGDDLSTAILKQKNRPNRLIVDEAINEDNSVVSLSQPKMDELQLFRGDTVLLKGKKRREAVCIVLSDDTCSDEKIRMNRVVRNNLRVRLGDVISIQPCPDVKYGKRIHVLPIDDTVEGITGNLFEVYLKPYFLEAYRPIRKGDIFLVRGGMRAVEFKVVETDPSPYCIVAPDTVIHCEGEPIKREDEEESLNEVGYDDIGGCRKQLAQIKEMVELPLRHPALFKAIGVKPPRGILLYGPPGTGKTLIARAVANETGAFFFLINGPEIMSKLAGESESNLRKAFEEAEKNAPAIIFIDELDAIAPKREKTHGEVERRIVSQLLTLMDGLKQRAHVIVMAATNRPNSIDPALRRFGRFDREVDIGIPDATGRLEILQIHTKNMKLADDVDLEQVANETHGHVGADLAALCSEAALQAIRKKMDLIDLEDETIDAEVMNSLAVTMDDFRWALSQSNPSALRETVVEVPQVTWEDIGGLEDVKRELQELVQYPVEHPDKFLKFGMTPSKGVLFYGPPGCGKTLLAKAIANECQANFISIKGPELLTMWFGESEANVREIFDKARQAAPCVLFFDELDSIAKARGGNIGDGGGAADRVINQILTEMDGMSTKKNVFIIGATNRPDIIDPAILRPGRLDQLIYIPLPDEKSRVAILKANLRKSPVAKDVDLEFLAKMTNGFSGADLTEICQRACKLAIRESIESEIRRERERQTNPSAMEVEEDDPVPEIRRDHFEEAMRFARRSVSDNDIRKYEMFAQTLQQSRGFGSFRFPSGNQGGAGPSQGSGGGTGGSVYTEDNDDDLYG

## c1ccc(CNc2nc(NCc3ccccc3)c3ccccc3n2)cc1 [DBEQ, N^2,N^4-Dibenzylquinazoline-2,4-diamine]
[1]; FSOD mice
  motor performance: improves motor performance
[1]; three FSOD mice, 1 μg/g s.c. daily after day 29, tested at P31, P34, 37 and 45
  motor performance in the climb test: progressive improvement in motor performance reaching the range of wt mice
VCP [2]
  VCP inhibition (mode): reversible, ATP-competitive direct VCP inhibitor

## CC1(C)C(N(O)C(=O)Nc2ccc(Cl)cc2)N(c2ccc(Cl)cc2)C(=O)N1CC(=O)NN=CC=Cc1ccc([N+](=O)[O-])o1 (stereo not shown) [Eer-I, 3-(4-Chlorophenyl)-4-[[[(4-chlorophenyl)amino]carbonyl]hydroxyamino]-5,5-dimethyl-2-oxo-1-imidazolidineacetic acid 2-[3-(5-nitro-2-furanyl)-2-propen-1-ylidene]hydrazide]
[1]; FSOD mice (n=4), 1 μg/g s.c. daily from P18, tested at P27, P37 and P47
  climb performance: comparable to wt mice
[1]; FSOD mice (n=4), after withdrawal
  climb performance upon resumption of the treatment: quickly improved
[1]; FSOD mice (n=4), resumption of treatment after withdrawal
  treatment time until performance comparable with that before withdrawal: 2 to 5 days
[1]; FSOD mice (n=4), treatment stopped on P47, tested at P49
  climb performance after 2 days of withdrawal of treatment: sharp drop in performance, down to a level comparable with that of untreated FSOD mice of the same age
[1]; [8]
  climb test performance (climb scores): markedly preserved performance, with climb scores comparable with WT mice
  duration of stable climb test performance: stable up to day P65
[1]; [9]
  climb score at day P85: returning in the range of untreated FSOD mice
  climb test performance: marked but transient improvement in performance
  increase of climb score: up to four-fold
[1]; FSOD mice, 1 μg/g s.c. daily from P27
  climb test performance after 5 days of treatment: level comparable with wt
[1]; FSOD mice, 1 μg/g s.c. daily from P27, tested at P29 and P32, vs saline
  climb test performance: marked improvement in performance
[1]; FSOD mice, FIG. 4 legend
  performance in the climb test: markedly improve
[1]; FSOD mice, FIG. 7 legend
  performance in the climb test: quickly restores performance
[3]; 1 μg/g s.c. daily since weaning (P20), n=7 per group
  survival vs untreated mutant mice: survived significantly longer
[3]; FSOD mice, FIG. 6 legend
  survival: prolongs FSOD mice survival
[4]; 1 μg/g s.c. daily from P63
  grid test performance soon after beginning of treatment: fast improvement in performance
  grid test performance vs untreated counterparts: performed significantly better than their untreated counterparts
[4]; [10]
  decline in muscle strength over time (grid test): significantly slower decline
  grid test performance at the earliest time point: better performance
[4]; FIG. 3 legend
  motor disability: delays motor disability
[5]; FIG. 5 legend
  body weight loss: delays body weight loss
[5]; 1 μg/g s.c. daily from P63
  bodyweight of FSOD mice: stabilized at a level lower than the littermates treated from weaning
[5]; 1 μg/g s.c. daily from weaning (P20)
  bodyweight of FSOD mice: stable bodyweight until day P140-145
[5]; wild type mice, 1 μg/g s.c. daily
  body weight of wild type mice: expected progressive increase in body weight
[5]; wild type mice, 1 μg/g s.c. daily, from body weight
  overt toxicity of the treatment: lack of overt toxicity
VCP [6]; FSOD mice treated with Eer-I vs FSOD and WT controls, lumbar spinal cord
  average cytoplasmic VCP staining intensity in motoneurons: significantly reduced (to an extent comparable with WT)
VCP [6]; FSOD mice, FIG. 11 legend
  VCP upregulation: reverses VCP upregulation
VCP [7]
  degradation of target misfolded proteins whose translocation and disposal is dependent upon VCP: prevent the degradation of target misfolded proteins

## O=[N+]([O-])C=Cc1ccc2c(c1)OCO2 [Syk-inhibitor III, 3,4-Methylenedioxy-β-nitrostyrene]
[1]; FSOD mice
  motor performance: improves motor performance
[1]; two mice, 1 μg/g s.c. daily, baseline p32, tested at 38, 43, 56 days of age
  performance in the climb test: markedly improved and reached the range of performance for WT mice
VCP [2]
  VCP inhibition (mode): substantial efficacy as an irreversible inhibitor of the D2 ATPase site on VCP
